Results as given in patent publication US11504323B2, “Boundary surface charged contact lens for delivery” (Lynthera Corporation, priority 2020, dated 2022).
Values after ≈ are worked out from the molar mass of the structure shown. Where a name gives a salt, the structure may show the parent alone. Read-outs that look alike come from different tables or passages of the source.

What was measured:
[1] = cited from earlier work
[2] = Release of THCL and KTF from oleic acid loaded lenses in PBS at different pH; settings: release medium pH from 7.4 to 5.5
[3] = cited from earlier work; remark: listed apart in the source

Row | Structure (SMILES) | Solubility in water [1] | release kinetics of KTF as pH decreases [2] | solubility in PBS ([3]; pH 7) | solubility in PBS ([3]; pH 10)
1 | CCCCCCCCCCCCCC(=O)O [Myristic acid] | 1 µM (≈ 0.228 µg/mL) | – | – | –
2 | CN1CCC(=C2c3ccccc3CC(=O)c3sccc32)CC1 [KTF, ketotifen fumarate] | – | accelerated | 10500 µg/mL | 20 µg/mL
